For this experiment, the target named is human TRPA1 channel (Homo sapiens (Human), UniProt O75762). Kind of experiment: hTRPA1 CHO Ca2+ FLIPR Tetra assay: block of cinnamaldehyde induced calcium influx. It counts as cell-based. The note with it: CHO cells expressing TRPA1, Hill coefficient fixed to 1.5. Put shortly:
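TRPA1-expressing CHO cells loaded with calcium indicator dye (1 h 37° C, then 15 min room temperature) in HBSS/20 mM HEPES pH 7.4/0.02% BSA. IC50 from fits with fixed Hill coefficient.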

Setting [1] is: read-out: hTRPA1 IC50 10 min, 10 minutes incubation with compound before cinnamaldehyde (about EC80).
Where [2] appears, read: read-out: hTRPA1 IC50 90 min, 90 minutes incubation with compound before cinnamaldehyde (about EC80).

Where two headings read alike, the source gives them in different places.

A word on the IC50: it is the concentration that gives 50% inhibition.

Chain of human TRPA1 channel (O75762 whole entry): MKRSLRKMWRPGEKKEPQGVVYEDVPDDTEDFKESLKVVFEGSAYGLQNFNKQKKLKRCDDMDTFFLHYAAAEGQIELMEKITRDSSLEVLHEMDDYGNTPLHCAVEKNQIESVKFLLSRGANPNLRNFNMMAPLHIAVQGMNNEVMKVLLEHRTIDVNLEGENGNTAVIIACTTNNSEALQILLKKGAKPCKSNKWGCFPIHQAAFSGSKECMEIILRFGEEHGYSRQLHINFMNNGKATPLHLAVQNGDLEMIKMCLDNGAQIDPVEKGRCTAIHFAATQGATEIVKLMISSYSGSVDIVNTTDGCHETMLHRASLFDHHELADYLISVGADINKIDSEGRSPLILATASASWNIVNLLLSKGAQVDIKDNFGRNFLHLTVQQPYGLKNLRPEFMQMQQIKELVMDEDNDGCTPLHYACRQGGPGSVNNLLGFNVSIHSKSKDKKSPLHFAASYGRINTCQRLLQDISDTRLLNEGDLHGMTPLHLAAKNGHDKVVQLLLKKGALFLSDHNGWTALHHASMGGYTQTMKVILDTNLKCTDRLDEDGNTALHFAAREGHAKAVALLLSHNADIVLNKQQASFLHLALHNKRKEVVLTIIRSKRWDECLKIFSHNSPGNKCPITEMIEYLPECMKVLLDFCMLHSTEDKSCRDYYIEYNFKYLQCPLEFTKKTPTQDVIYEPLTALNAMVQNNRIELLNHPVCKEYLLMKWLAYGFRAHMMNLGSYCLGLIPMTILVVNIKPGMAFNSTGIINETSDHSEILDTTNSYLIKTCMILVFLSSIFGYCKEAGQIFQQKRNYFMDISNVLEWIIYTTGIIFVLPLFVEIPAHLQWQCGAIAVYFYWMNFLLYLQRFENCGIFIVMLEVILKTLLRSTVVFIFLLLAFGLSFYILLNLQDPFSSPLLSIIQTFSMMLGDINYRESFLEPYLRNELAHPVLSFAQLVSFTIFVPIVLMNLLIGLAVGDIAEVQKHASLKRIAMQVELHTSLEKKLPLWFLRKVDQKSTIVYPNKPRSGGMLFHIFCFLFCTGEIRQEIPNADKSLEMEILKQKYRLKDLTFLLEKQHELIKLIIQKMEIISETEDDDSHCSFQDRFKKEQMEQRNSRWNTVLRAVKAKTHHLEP

On to `Cn1cnc2ccn(Cc3nc([C@@H]4CO[C@@H](c5ccc(Cl)cc5)C4)no3)c(=O)c21` [Example 39, 5-((3-((3R,5R)-5-(4-chlorophenyl)tetrahydro-furan-3-yl)-1,2,4-oxadiazol-5-yl)methyl)-3-methyl-3,5-dihydro-4H-imidazo[4,5-c]pyridin-4-one], for which the IC50 reads like this: under setting [1], 3.06 nM; under setting [2], 0.42 nM.

On to `Cn1cnc2ncn(Cc3nc([C@@H]4CO[C@@H](c5cc(F)c(F)c(F)c5)C4)no3)c(=O)c21` [Example 40, 7-methyl-1-((3-((3R,5R)-5-(3,4,5-trifluorophenyl)tetrahydrofuran-3-yl)-1,2,4-oxadiazol-5-yl)methyl)-1,7-dihydro-6H-purin-6-one], for which the IC50 was 27.6 nM under setting [1] and 11 nM under setting [2].

Regarding `Cn1cnc2ncn(Cc3nc([C@@H]4CO[C@@H](c5ccc(Cl)cn5)C4)no3)c(=O)c21` [Example 41, 1-((3-((3R,5R)-5-(5-chloropyridin-2-yl)tetrahydrofuran-3-yl)-1,2,4-oxadiazol-5-yl)methyl)-7-methyl-1,7-dihydro-6H-purin-6-one], the IC50 is 190 nM under setting [1] and 170 nM under setting [2].

`Cn1cnc2ncn(Cc3nc([C@@H]4CO[C@@](C)(c5ccc(Cl)cc5)C4)no3)c(=O)c21` [Example 42, 1-((3-((3R,5R)-5-(4-chlorophenyl)-5-methyltetrahydrofuran-3-yl)-1,2,4-oxadiazol-5-yl)methyl)-7-methyl-1,7-dihydro-6H-purin-6-one]: the IC50 under setting [1] was 3710 nM and the IC50 under setting [2] amounted to 2200 nM.

With `Cn1cnc2ncn(Cc3nc([C@@H]4CO[C@@]5(Cc6ccccc65)C4)no3)c(=O)c21` [Example 43, 1-((3-((4′R,7R)-4′,5′-dihydro-3′H-spiro[bicyclo[4.2.0]octane-7,2′-furan]-1(6),2,4-trien-4′-yl)-1,2,4-oxadiazol-5-yl)methyl)-7-methyl-1,7-dihydro-6H-purin-6-one], the IC50 amounted to 278 nM under setting [1] and 140 nM under setting [2].

As to `Cc1cncc2ncn(Cc3nc([C@@H]4CO[C@@H](c5ccc(Cl)cc5)C4)no3)c(=O)c12` [Example 44, 3-((3-((3R,5R)-5-(4-chlorophenyl)tetrahydro-furan-3-yl)-1,2,4-oxadiazol-5-yl)methyl)-5-methylpyrido[3,4-d]pyrimidin-4(3H)-one], the IC50 is, setting by setting: under setting [1], 3.2 nM; under setting [2], 1.3 nM.

As to `O=c1c2ccncc2ncn1Cc1nc([C@@H]2CO[C@@H](c3ccc(Cl)cc3)C2)no1` [Example 45, 3-((3-((3R,5R)-5-(4-chlorophenyl)tetrahydro-furan-3-yl)-1,2,4-oxadiazol-5-yl)methyl)pyrido[3,4-d] pyrimidin-4(3H)-one], the IC50 runs as follows: under setting [1], 19.3 nM; under setting [2], 7.8 nM.

For the compound `Cn1c(=O)ccc2ncn(Cc3nc([C@@H]4CO[C@@H](c5ccc(Cl)cc5)C4)no3)c(=O)c21` [Example 46, 3-((3-((3R,5R)-5-(4-chlorophenyl)tetra-hydrofuran-3-yl)-1,2,4-oxadiazol-5-yl)methyl)-5-methyl-3,5-dihydropyrido[3,2-d] pyrimidine-4,6-dione], the IC50 by setting is: under setting [1], 14.5 nM; under setting [2], 14 nM.

As for `Cc1c(=O)ncn2cnn(Cc3nc([C@@H]4CO[C@@H](c5ccc(Cl)cc5)C4)no3)c(=O)c12` [Example 47, 2-((3-((3R,5R)-5-(4-chlorophenyl)tetra-hydrofuran-3-yl)-1,2,4-oxadiazol-5-yl)methyl)-9-methyl-2H-pyrimido[1,6-d][1,2,4] triazine-1,8-dione], the IC50 reads like this: under setting [1], 332 nM; under setting [2], 240 nM.

Regarding `Cc1cnn2ncn(Cc3nc([C@@H]4CO[C@@H](c5ccc(Cl)cc5)C4)no3)c(=O)c12` [Example 48, 3-((3-((3R,5R)-5-(4-chlorophenyl)tetra-hydrofuran-3-yl)-1,2,4-oxadiazol-5-yl)methyl)-5-methylpyrazolo[5,1-f][1,2,4]triazin-4(3H)-one], the IC50 came out at 1.2 nM under setting [1] and 0.8 nM under setting [2].

Regarding `Cc1ccc(=O)n2ccn(Cc3nc([C@@H]4CO[C@@H](c5ccc(Cl)cc5)C4)no3)c(=O)c12` [Example 49, 2-((3-((3R,5R)-5-(4-chlorophenyl)tetrahydro-furan-3-yl)-1,2,4-oxadiazol-5-yl)methyl)-9-methyl-2H-pyrido[1,2-a]pyrazine-1,6-dione], under setting [2], the IC50 is 4.3 nM.

With `Cn1c(=O)c2c(ncn2Cc2nc([C@@H]3CO[C@@H](c4ccc(Cl)cc4)C3)no2)n(C)c1=O` [Example 50, 7-((3-((3R,5R)-5-(4-chlorophenyl)tetrahydro-furan-3-yl)-1,2,4-oxadiazol-5-yl)methyl)-1,3-dimethyl-3,7-dihydro-1H-purine-2,6-dione], the half-maximal inhibitory concentration (IC50) runs as follows: under setting [1], 50.8 nM; under setting [2], 57 nM.

For the compound `Cn1c(NCc2ccccn2)nc2ncn(Cc3nc([C@@H]4CO[C@@H](c5ccc(Cl)cc5)C4)no3)c(=O)c21` [Example 51], the IC50 by setting is: under setting [1], 40.1 nM; under setting [2], 29 nM.

Take `COc1nccc2c(=O)n(Cc3nc([C@@H]4CO[C@@H](c5ccc(Cl)cc5)C4)no3)cnc12` [Example 52, 3-((3-((3R,5R)-5-(4-chlorophenyl)tetrahydro-furan-3-yl)-1,2,4-oxadiazol-5-yl)methyl)-8-methoxypyrido[3,4-d]pyrimidin-4(3H)-one]: the half-inhibitory concentration (IC50) runs as follows: under setting [1], 95.1 nM; under setting [2], 140 nM.

For the compound `Cn1cnc2ncn(Cc3nc([C@@H]4CO[C@@H](c5ccc6ncsc6c5)C4)no3)c(=O)c21` [Example 53, 1-((3-((3R,5R)-5-(benzo[d]thiazol-6-yl)tetrahydrofuran-3-yl)-1,2,4-oxadiazol-5-yl)methyl)-7-methyl-1,7-dihydro-6H-purin-6-one], the IC50 is 146 nM under setting [1] and 88 nM under setting [2].

For the compound `Cc1ccnc2ncn(Cc3nc([C@@H]4CO[C@@H](c5ccc(Cl)cc5)C4)no3)c(=O)c12` [Example 54, 3-((3-((3R,5R)-5-(4-chlorophenyl)tetrahydro-furan-3-yl)-1,2,4-oxadiazol-5-yl)methyl)-5-methylpyrido[2,3-d] pyrimidin-4(3H)-one], the IC50 was 2.14 nM under setting [1] and 0.73 nM under setting [2].

In the case of `Cn1cnc2ncn(Cc3nc([C@@H]4CO[C@@H](c5ccc(Cl)cc5)C4)no3)c2c1=O` [Example 55, 7-((3-((3R,5R)-5-(4-chlorophenyl)tetrahydro-furan-3-yl)-1,2,4-oxadiazol-5-yl)methyl)-1-methyl-1,7-dihydro-6H-purin-6-one], the half-inhibitory concentration (IC50) amounted to 19 nM under setting [1] and 12 nM under setting [2].

Turning to `Cn1cnc2ccn(Cc3nc([C@@H]4CO[C@@H](c5ccc(F)cc5)C4)no3)c(=O)c21` [Example 56, 5-((3-((3R,5R)-5-(4-fluorophenyl)tetrahydro-furan-3-yl)-1,2,4-oxadiazol-5-yl)methyl)-3-methyl-3,5-dihydro-4H-imidazo[4,5-c]pyridin-4-one], the IC50 is 6.76 nM under setting [1] and 1.9 nM under setting [2].

Turning to `Cn1cnc2cnn(Cc3nc([C@@H]4CO[C@@H](c5ccc(Cl)cc5)C4)no3)c(=O)c21` [Example 57, 5-((3-((3R,5R)-5-(4-chlorophenyl)tetrahydro-furan-3-yl)-1,2,4-oxadiazol-5-yl)methyl)-3-methyl-3,5-dihydro-4H-imidazo[4,5-d] pyridazin-4-one], the IC50 is, setting by setting: under setting [1], 38.8 nM; under setting [2], 18 nM.

Turning to `Cc1ccnc2ncn(Cc3nc([C@@H]4CO[C@@H](c5ccc(Cl)cc5)C4)no3)c(=O)c12` [Example 58, 3-((3-((3R,5R)-5-(4-chlorophenyl)tetrahydro-furan-3-yl)-1,2,4-oxadiazol-5-yl)methyl)-5-methylpyrido[2,3-d] pyrimidin-4(3H)-one], the IC50 by setting is: under setting [1], 69 nM; under setting [2], 52 nM.

`Cn1cnc2ncn(Cc3nc([C@@H]4CO[C@@H](c5ccc(Cl)cc5)C4)no3)c(=S)c21` [Example 59, 1-((3-((3R,5R)-5-(4-chlorophenyl)tetrahydro-furan-3-yl)-1,2,4-oxadiazol-5-yl)methyl)-7-methyl-1,7-dihydro-6H-purine-6-thione]: the IC50 runs as follows: under setting [1], 4.16 nM; under setting [2], 3 nM.

For the compound `Nc1ccc2c(=O)n(Cc3nc([C@@H]4CO[C@@H](c5ccc(F)cc5)C4)no3)cnc2n1` [Example 60, 7-amino-3-((3-((3R,5R)-5-(4-fluorophenyl)tetrahydrofuran-3-yl)-1,2,4-oxadiazol-5-yl)methyl)pyrido[2,3-d] pyrimidin-4(3H)-one], the IC50 is, setting by setting: under setting [1], 15.6 nM; under setting [2], 12 nM.

Turning to `Cn1nnc2ccn(Cc3nc([C@@H]4CO[C@@H](c5ccc(Cl)cc5)C4)no3)c(=O)c21` [Example 61, 5-((3-((3R,5R)-5-(4-chlorophenyl)tetrahydro-furan-3-yl)-1,2,4-oxadiazol-5-yl)methyl)-3-methyl-3,5-dihydro-4H-[1,2,3]triazolo[4,5-c]pyridin-4-one], the IC50 is 4.65 nM under setting [1] and 2.1 nM under setting [2].

`Nc1nc2ncccc2c(=O)n1Cc1nc([C@@H]2CO[C@@H](c3ccc(Cl)cc3)C2)no1` [Example 62, 2-amino-3-((3-((3R,5R)-5-(4-chlorophenyl)tetrahydrofuran-3-yl)-1,2,4-oxadiazol-5-yl)methyl)pyrido[2,3-d] pyrimidin-4(3H)-one]: the IC50 by setting is: under setting [1], 8.29 nM; under setting [2], 2.7 nM.

`Cc1cc(=O)nc2ccn(Cc3nc([C@@H]4CO[C@@H](c5ccc(Cl)cc5)C4)no3)c(=O)n12` [Example 63]: the 50% inhibitory concentration (IC50) runs as follows: under setting [1], 9.26 nM; under setting [2], 2.8 nM.

Turning to `Cc1ncn2ncn(Cc3nc([C@@H]4CO[C@@H](c5ccc(Cl)cc5)C4)no3)c(=O)c12` [Example 64, 3-((3-((3R,5R)-5-(4-chlorophenyl)tetrahydro-furan-3-yl)-1,2,4-oxadiazol-5-yl)methyl)-5-methylimidazo[1,5-f] [1,2,4]triazin-4(3H)-one], the IC50 is 20.6 nM under setting [1] and 15 nM under setting [2].

Source of the values: US10710994B2, “Oxadiazole transient receptor potential channel inhibitors” (Genentech, Inc., priority 2018, dated 2020).
